The values that follow come from US11090395B2, “Composition for cross talk between estrogen receptors and cannabinoid receptors” (SeeCure Taiwan Co., Ltd., priority 2018, dated 2021).

This series deals with lymphoma cells (mantle cell lines and DLBCL cell lines). Put plainly: In vitro anti-cancer cell viability assay in lymphoma cell lines. The format is cell-based. The method, then:
Effect of Composition SC-05-L-1 and Composition SC-05-K-1 against lymphoma cells was assessed by using cell viability assays in representative mantle cell lines and diffuse large B-cell lymphoma (DLBCL) cell lines. The cells were treated with increasing concentration of Compound SC-05-L-1 and Compound SC-05-K-1. Representative DLBCL cell lines sensitive or less sensitive to Compound SC-05-L-1 and Compound SC-05-K-1 were compared.

The structures appear in SMILES notation.

Regarding `CCN(CC)CCOc1ccc(/C(=C(/CCCOCC(O)CN2CCCNCCNCCCNCC2)c2ccccc2)c2ccccc2)cc1.Cl` [SC-05-L-1, (Z)-1-(1,4,8,11-tetraazacyclotetradecan-1-yl)-3-((5-(4-(2-(diethylamino)ethoxy)phenyl)-4,5-diphenylpent-4-en-1-yl)oxy)propan-2-ol hydrochloride salt], the “anti-cancer effect against lymphoma cells” value (increasing concentration (FIG. 7A, 7B)) is listed as “dose-dependent manner against lymphoma cells”. Moreover, the relative toxicity result (lymphoma cells, cyclam versus cyclen chelator (FIG. 8A, 8B)) was “less toxic than Compound SC-05-K-1”.
